Like-named read-outs stand apart in the source and are kept apart here.
Legend:
[1] = Cytotoxicity assay in Vero E6 cells (neutral red uptake); assay type: cell-based; conditions: African green monkey
Experimental: Briefly, 80.000 cells/ml of the tested cell lines were dispensed into 96-well cell culture plates at 100 μl per well Twenty-four hours later, the growth medium was removed and washed with 150 μl of PBS buffer. Two hundred microliters of fresh serum-free medium containing serial diluted compounds was added to each well. After incubating for 2 days at 37° C., the medium was removed and replaced with 100 μl of DMEM medium containing neutral red (40 μg/ml) and incubated for 2 to 4 hours at 37° C. The amount of neutral red taken up was determined by measuring the absorbance at 540 nm using a Multiskan FC Microplate Photometer (Thermo Fisher Scientific) The CC50 values were calculated from best-fit dose-response curves with variable slope in Prism 8.

SARS-CoV-2 PLpro = SARS-CoV-2 PLpro (Severe acute respiratory syndrome coronavirus 2, UniProt P0DTD1); assay: FRET-based PLpro enzymatic assay; assay type: biochemical
Experimental: The SARS-CoV-2 PL^pro enzymatic assays were carried out as follows. The assay was assembled in 96-well plates with 100 μl of 200 nM PL^Pro protein in PL^Pro reaction buffer [50 mM Hepes (pH 7.5), 0.01% Triton X-100, and 5 mM DTT]. Then, 1 μl of testing compound at various concentrations was added to each well and incubated at 30° C. for 30 minutes. The enzymatic reaction was initiated by adding 1 μl of 1 mM FRET substrate (the final substrate concentration is 10 μM). The reaction was monitored in a Cytation 5 image reader with filters for excitation at 360/40 nm and emission at 460/40 nm at 30° C. for 1 hour. The initial velocity of the enzymatic reaction with and without testing compounds was calculated by linear regression for the first 15 minutes of the kinetic progress curve. The IC50 values were calculated by plotting the initial velocity against various concentrations of testing compounds with a dose-response function in Prism 8 software.

[2] = Vero E6 cells, 2 days at 37° C., neutral red uptake, read-out: Vero CC50
[3] = 200 nM PLpro, 10 μM FRET substrate, 30 min preincubation at 30° C., read-out: IC50

Compound: Cc1ccc(OC2CN(C)C2)cc1C(=O)N[C@H](C)c1cc(-c2cnn(C)c2)nc2ccccc12 [Example 90, (R)-2-methyl-N-(1-(2-(1-methyl-1H-pyrazol-4-yl)quinolin-4-yl)ethyl)-5-((1-methylazetidin-3-yl)oxy)benzamide]
- CC50 at 2 days [1, 2]: 72.5 ± 2.08 µM
- IC50 (SARS-CoV-2 PLpro; [3]): < 0.5 µM

Compound: Cc1ccc(OCCN(C)C)cc1C(=O)N[C@H](C)c1cc(-c2cc[nH]c(=O)c2)nc2ccccc12 [Example 54, (R)-5-(2-(dimethylamino)ethoxy)-2-methyl-N-(1-(2-(2-oxo-1,2-dihydropyridin-4-yl)quinolin-4-yl)ethyl)benzamide]
- CC50 at 2 days [1, 2]: > 125 µM
- IC50 (SARS-CoV-2 PLpro; [3]): 0.5 to 1 µM

Compound: Cc1ccc(OCC2CN(C)C2)cc1C(=O)N[C@H](C)c1cc(-c2cnn(C)c2)nc2ccccc12 [Example 91, (R)-2-methyl-N-(1-(2-(1-methyl-1H-pyrazol-4-yl)quinolin-4-yl)ethyl)-5-((1-methylazetidin-3-yl)methoxy)benzamide]
- CC50 at 2 days [1, 2]: 96.1 ± 5.36 µM
- IC50 (SARS-CoV-2 PLpro; [3]): < 0.5 µM

Compound: Cc1ccc(N2CC3CCC(C2)N3C)cc1C(=O)N[C@H](C)c1cc(-c2ccn(C)n2)nc2ccccc12 [Example 102, 2-methyl-N—((R)-1-(2-(1-methyl-1H-pyrazol-3-yl)quinolin-4-yl)ethyl)-5-(8-methyl-3,8-diazabicyclo[3.2.1]octan-3-yl)benzamide]
- CC50 at 2 days [1]: 15.2 ± 1.09 µM
- IC50 (SARS-CoV-2 PLpro): < 0.5 µM

Compound: Cc1ccc(OCCN(C)C)cc1C(=O)N[C@H](C)c1cc(-c2cnn(C(F)F)c2)nc2ccccc12 [Example 3, (R)—N-(1-(2-(1-(difluoromethyl)-1H-pyrazol-4-yl)quinolin-4-yl)ethyl)-5-(2-(dimethylamino)ethoxy)-2-methylbenzamide]
- CC50 at 2 days [1, 2]: 15.2 ± 2.54 µM
- IC50 (SARS-CoV-2 PLpro; [3]): < 0.5 µM

Compound: Cc1ccc(OCCN(C)C)cc1C(=O)N[C@H](C)c1cc(-c2ccc3cn[nH]c3c2)nc2ccccc12 [Example 61, (R)—N-(1-(2-(1H-indazol-6-yl)quinolin-4-yl)ethyl)-5-(2-(dimethylamino)ethoxy)-2-methylbenzamide]
- CC50 at 2 days [1, 2]: 25.7 ± 2.09 µM
- IC50 (SARS-CoV-2 PLpro; [3]): > 5 µM

Compound: Cc1ccc(N2CCN(C)CC2)cc1C(=O)NC1(c2cc(-c3cnn(C)c3)nc3ccccc23)CC1 [Example 111, 2-methyl-N-(1-(2-(1-methyl-1H-pyrazol-4-yl)quinolin-4-yl)cyclopropyl)-5-(4-methylpiperazin-1-yl)benzamide]
- CC50 at 2 days [1, 2]: > 150 µM

Compound: Cc1ccc(N2CC[C@@H](N(C)C)C2)cc1C(=O)N[C@H](C)c1cc(-c2cnn(C)c2)nc2ccccc12 [Example 96, 5-((R)-3-(dimethylamino)pyrrolidin-1-yl)-2-methyl-N—((R)-1-(2-(1-methyl-1H-pyrazol-4-yl)quinolin-4-yl)ethyl)benzamide]
- CC50 at 2 days [1, 2]: 28.8 µM
- IC50 (SARS-CoV-2 PLpro; [3]): < 0.5 µM

Compound: Cc1ccc(N2C[C@H]3CN(C)C[C@H]3C2)cc1C(=O)NC1(c2cc(-c3cnn(C)c3)nc3ccccc23)CC1 [Example 113, 2-methyl-N-(1-(2-(1-methyl-1H-pyrazol-4-yl)quinolin-4-yl)cyclopropyl)-5-((3aR,6aS)-5-methylhexahydropyrrolo[3,4-c]pyrrol-2(1H)-yl)benzamide]
- CC50 at 2 days [1, 2]: 56.1 µM

Compound: Cc1ccc(OCCN(C)C)cc1C(=O)N[C@H](C)c1cc(-c2cnc3[nH]ncc3c2)nc2ccccc12 [Example 49, (R)—N-(1-(2-(1H-pyrazolo[3,4-b]pyridin-5-yl)quinolin-4-yl)-ethyl)-5-(2-(dimethylamino)-ethoxy)-2-methylbenzamide]
- CC50 at 2 days [1, 2]: > 250 µM

Compound: Cc1ccc(N2CCN(C)[C@H](C)C2)cc1C(=O)N[C@H](C)c1cc(-c2cnn(C)c2)nc2ccccc12 [Example 79, 5-((R)-3,4-dimethylpiperazin-1-yl)-2-methyl-N—((R)-1-(2-(1-methyl-1H-pyrazol-4-yl)quinolin-4-yl)ethyl)benzamide]
- IC50 (SARS-CoV-2 PLpro; [3]): < 0.5 µM

Compound: Cc1ccc(N2CC[C@@H](N(C)C)C2)cc1C(=O)N[C@H](C)c1cc(-c2ccn(C)n2)nc2ccccc12 [Example 100, 5-((R)-3-(dimethylamino)pyrrolidin-1-yl)-2-methyl-N—((R)-1-(2-(1-methyl-1H-pyrazol-3-yl)quinolin-4-yl)ethyl)benzamide]
- CC50 at 2 days [1, 2]: 30.6 ± 1.72 µM
- IC50 (SARS-CoV-2 PLpro; [3]): < 0.5 µM

Compound: Cc1ccc(OCCN(C)C)cc1C(=O)N[C@H](C)c1cc(-c2cnn(C(F)(F)F)c2)nc2ccccc12 [Example 63, (R)-5-(2-(dimethylamino)ethoxy)-2-methyl-N-(1-(2-(1-(trifluoro-methyl)-1H-pyrazol-4-yl)quinolin-4-yl)ethyl)benzamide]
- CC50 at 2 days [1, 2]: 17.7 ± 2.04 µM
- IC50 (SARS-CoV-2 PLpro; [3]): < 0.5 µM

Compound: Cc1ccc(OCCN(C)C)cc1C(=O)N[C@H](C)c1cc(-c2ccn[nH]2)nc2ccccc12 [Example 15, (R)—N-(1-(2-(1H-pyrazol-5-yl)quinolin-4-yl)ethyl)-5-(2-(dimethylamino)ethoxy)-2-methylbenzamide]
- CC50 at 2 days [1, 2]: 63.2 ± 9.51 µM
- IC50 (SARS-CoV-2 PLpro; [3]): < 0.5 µM

Compound: COc1cccc(-c2cc([C@@H](C)NC(=O)c3cc(OCCN(C)C)ccc3C)c3ccccc3n2)c1 [Example 67, (R)-5-(2-(dimethylamino)ethoxy)-N-(1-(2-(3-methoxyphenyl)-quinolin-4-yl)ethyl)-2-methylbenzamide]
- CC50 at 2 days [1, 2]: 17.2 ± 3.25 µM
- IC50 (SARS-CoV-2 PLpro; [3]): < 0.5 µM

Compound: CCn1ccc(-c2cc([C@@H](C)NC(=O)c3cc(OC[C@H]4CCCN4C)ccc3C)c3ccccc3n2)n1 [Example 110, N—((R)-1-(2-(1-ethyl-1H-pyrazol-3-yl)quinolin-4-yl)ethyl)-2-methyl-5-(((R)-1-methylpyrrolidin-2-yl)methoxy)benzamide]
- CC50 at 2 days [1, 2]: 46.3 ± 13.9 µM
- IC50 (SARS-CoV-2 PLpro; [3]): < 0.5 µM

Compound: COc1ncc(-c2cc([C@@H](C)NC(=O)c3cc(OCCN(C)C)ccc3C)c3ccccc3n2)cn1 [Example 62, (R)-5-(2-(dimethylamino)ethoxy)-N-(1-(2-(2-methoxy-pyrimidin-5-yl)quinolin-4-yl)ethyl)-2-methylbenzamide]
- IC50 (SARS-CoV-2 PLpro; [3]): > 5 µM

Compound: Cc1ccc(OCCN(C)C)cc1C(=O)N[C@H](C)c1cc(-c2ccc(CN3CCOCC3)o2)nc2ccccc12 [Example 72, (R)-5-(2-(dimethylamino)ethoxy)-2-methyl-N-(1-(2-(5-(morpholinomethyl)furan-2-yl)quinolin-4-yl)ethyl)benzamide]
- IC50 (SARS-CoV-2 PLpro; [3]): < 0.5 µM

Compound: Cc1ccc(OCCN(C)C)cc1C(=O)N[C@@H](C)c1cc(-c2ccco2)nc2ccccc12 [Example 17, (S)-5-(2-(dimethylamino)ethoxy)-N-(1-(2-(furan-2-yl)quinolin-4-yl)ethyl)-2-methylbenzamide]
- IC50 (SARS-CoV-2 PLpro; [3]): < 0.5 µM

Compound: Cc1ccc(OCCN(C)C)cc1C(=O)N[C@H](C)c1cc(-c2cn[nH]c2)nc2ccccc12 [Example 23, (R)—N-(1-(2-(1H-pyrazol-4-yl)quinolin-4-yl)ethyl)-5-(2-(dimethylamino)ethoxy)-2-methylbenzamide]
- IC50 (SARS-CoV-2 PLpro; [3]): < 0.5 µM

Compound: CCn1ccc(-c2cc([C@@H](C)NC(=O)c3cc(OC[C@@H]4CCN4C)ccc3C)c3ccccc3n2)n1 [Example 105, N—((R)-1-(2-(1-ethyl-1H-pyrazol-3-yl)quinolin-4-yl)ethyl)-2-methyl-5-(((S)-1-methyl-azetidin-2-yl)methoxy)benzamide]
- IC50 (SARS-CoV-2 PLpro; [3]): < 0.5 µM

Compound: Cc1ccc(OC[C@@H]2CCN2C)cc1C(=O)N[C@H](C)c1cc(-c2cnn(C)c2)nc2ccccc12 [Example 75, 2-methyl-N—((R)-1-(2-(1-methyl-1H-pyrazol-4-yl)quinolin-4-yl)ethyl)-5-(((S)-1-methylazetidin-2-yl)methoxy)benzamide]
- IC50 (SARS-CoV-2 PLpro; [3]): < 0.5 µM

Compound: Cc1ccc(N2C[C@H]3CN(C)C[C@H]3C2)cc1C(=O)N[C@H](C)c1cc(-c2cnn(C)c2)nc2ccccc12 [Example 81, 2-methyl-N—((R)-1-(2-(1-methyl-1H-pyrazol-4-yl)quinolin-4-yl)ethyl)-5-((3aR,6aS)-5-methylhexahydropyrrolo[3,4-c]pyrrol-2(1H)-yl)benzamide]
- IC50 (SARS-CoV-2 PLpro; [3]): < 0.5 µM

Compound: Cc1ccc(OCCN(C)C)cc1C(=O)N[C@H](C)c1cc(-c2cnn(C)c2)nc2ccccc12 [Example 7, (R)-5-(2-(dimethylamino)ethoxy)-2-methyl-N-(1-(2-(1-methyl-1H-pyrazol-4-yl)quinolin-4-yl)ethyl)benzamide]
- IC50 (SARS-CoV-2 PLpro; [3]): < 0.5 µM

Compound: CCn1ccc(-c2cc([C@@H](C)NC(=O)c3cc(OC[C@@H]4CCCN4C)ccc3C)c3ccccc3n2)n1 [Example 109, N—((R)-1-(2-(1-ethyl-1H-pyrazol-3-yl)quinolin-4-yl)ethyl)-2-methyl-5-(((S)-1-methylpyrrolidin-2-yl)methoxy)benzamide]
- CC50 at 2 days [1, 2]: 27 ± 1.66 µM

Compound: Cc1ccc(OCCN(C)C)cc1C(=O)N[C@H](C)c1cc(-n2ccnc2)nc2ccccc12 [Example 46, (R)—N-(1-(2-(1H-imidazol-1-yl)quinolin-4-yl)ethyl)-5-(2-(dimethylamino)ethoxy)-2-methylbenzamide]
- IC50 (SARS-CoV-2 PLpro; [3]): < 0.5 µM

Compound: Cc1ccc(OC[C@H]2CCCN2C)cc1C(=O)N[C@H](C)c1cc(-c2cnn(C)c2)nc2ccccc12 [Example 83, 2-methyl-N—((R)-1-(2-(1-methyl-1H-pyrazol-4-yl)quinolin-4-yl)ethyl)-5-(((R)-1-methylpyrrolidin-2-yl)methoxy)benzamide]
- IC50 (SARS-CoV-2 PLpro; [3]): < 0.5 µM

From US20240382494A1, “THERAPEUTIC COMPOUNDS” (priority 2023, published 2024)
